IC50 data for 15 molecules are collected here from US11759455B2, “Substituted 1H-imidazo[4,5-b]pyridin-2(3H)-ones and their use as GLUN2B receptor modulators” (JANSSEN PHARMACEUTICA NV, priority 2016, dated 2023).

T1 sequence (Q13224 27-1484, other chains not shown): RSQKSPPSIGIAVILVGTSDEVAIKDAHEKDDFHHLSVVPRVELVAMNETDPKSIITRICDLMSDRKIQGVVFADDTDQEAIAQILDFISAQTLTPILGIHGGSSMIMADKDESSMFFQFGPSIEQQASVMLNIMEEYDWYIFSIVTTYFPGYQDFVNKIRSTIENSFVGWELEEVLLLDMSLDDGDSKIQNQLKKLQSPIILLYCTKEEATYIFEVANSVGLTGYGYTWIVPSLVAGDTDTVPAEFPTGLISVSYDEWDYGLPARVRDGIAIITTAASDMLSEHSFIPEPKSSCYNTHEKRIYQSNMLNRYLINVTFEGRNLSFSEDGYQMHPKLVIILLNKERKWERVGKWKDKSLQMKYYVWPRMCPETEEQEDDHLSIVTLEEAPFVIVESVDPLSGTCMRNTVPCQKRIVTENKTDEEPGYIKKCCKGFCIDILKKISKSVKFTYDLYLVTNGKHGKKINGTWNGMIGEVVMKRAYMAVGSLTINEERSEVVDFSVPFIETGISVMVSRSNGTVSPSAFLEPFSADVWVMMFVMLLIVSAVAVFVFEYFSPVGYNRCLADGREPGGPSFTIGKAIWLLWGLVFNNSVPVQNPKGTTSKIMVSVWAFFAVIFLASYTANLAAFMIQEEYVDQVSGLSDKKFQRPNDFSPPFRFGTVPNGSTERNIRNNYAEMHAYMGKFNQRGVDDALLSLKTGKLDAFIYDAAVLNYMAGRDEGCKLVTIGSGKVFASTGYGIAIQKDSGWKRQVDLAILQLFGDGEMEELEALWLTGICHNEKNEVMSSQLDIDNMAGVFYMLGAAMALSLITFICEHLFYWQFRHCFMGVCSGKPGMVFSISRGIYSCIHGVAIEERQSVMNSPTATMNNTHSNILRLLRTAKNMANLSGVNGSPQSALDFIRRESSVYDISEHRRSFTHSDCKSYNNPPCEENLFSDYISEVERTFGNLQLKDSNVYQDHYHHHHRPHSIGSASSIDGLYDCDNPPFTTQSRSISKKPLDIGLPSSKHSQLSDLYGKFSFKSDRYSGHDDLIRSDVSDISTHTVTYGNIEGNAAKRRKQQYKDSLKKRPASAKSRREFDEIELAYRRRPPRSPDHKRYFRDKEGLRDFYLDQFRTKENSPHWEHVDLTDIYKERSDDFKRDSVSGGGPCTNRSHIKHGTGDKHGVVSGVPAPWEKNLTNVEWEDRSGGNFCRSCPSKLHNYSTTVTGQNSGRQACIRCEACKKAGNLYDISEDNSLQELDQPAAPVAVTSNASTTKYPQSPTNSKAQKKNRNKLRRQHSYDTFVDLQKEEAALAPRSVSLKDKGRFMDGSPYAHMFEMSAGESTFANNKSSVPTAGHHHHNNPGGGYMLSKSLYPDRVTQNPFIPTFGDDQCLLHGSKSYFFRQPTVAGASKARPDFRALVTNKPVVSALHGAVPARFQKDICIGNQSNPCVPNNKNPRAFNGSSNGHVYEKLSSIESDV

The assay addresses T1, human GluN1/GluN2B NMDA receptors (Homo sapiens, UniProt Q13224).
T1 construct: expressed in transfected cells
The assay is described as follows: Cell-based calcium flux (FLIPR) assay on cloned human NR1/NR2B ion channels expressed in mammalian cells (standard and HTS buffer variants).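 Note: stable Tet-On inducible cell line, Ca2+ influx triggered by glutamate at about EC40 plus 10 µM glycine, fluorescent dye read-out over 5 min, normalized to control wells.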 The following applies: standard assay buffer (0.5 mM MgCl2 in dye loading buffer; 137 mM NaCl, 4 mM KCl in assay buffer), human GluN1/GluN2B, read-out: NR2B IC50 (μM) standard assay. Background: Calcium flux is commonly read through the fluorescence of an indicator in the cells.
Consider `Cc1cccc(-c2cnc3c(c2)n(Cc2cncc(Cl)c2)c(=O)n3C)c1` [Example 374, 1-[(5-Chloro-3-pyridyl)methyl]-3-methyl-6-(m-tolyl)imidazo[4,5-b]pyridin-2-one], for which the IC50 (usually the point on the concentration scale where inhibition reaches its midpoint) worked out at 0.416 µM.

Take `Cn1c(=O)n(Cc2cncc(Cl)c2)c2cc(-c3cccc(F)c3F)cnc21` [Example 375, 1-[(5-Chloro-3-pyridyl)methyl]-6-(2,3-difluorophenyl)-3-methyl-imidazo[4,5-b]pyridin-2-one]: the half-inhibitory concentration (IC50) worked out at 1.51 µM.

In the case of `Cn1c(=O)n(Cc2cccnn2)c2cc(-c3cccc(Cl)c3)cnc21` [Example 376, 6-(3-Chlorophenyl)-3-methyl-1-(pyridazin-3-ylmethyl)imidazo[4,5-b]pyridin-2-one], the IC50 came out at 0.056 µM.

In the case of `Cn1c(=O)n(Cc2cccnn2)c2cc(-c3cccc(C(F)F)c3)cnc21` [Example 377, 6-[3-(Difluoromethyl)phenyl]-3-methyl-1-(pyridazin-3-ylmethyl)imidazo[4,5-b]pyridin-2-one], the IC50 came to 0.03 µM.

On to `Cn1c(=O)n(Cc2cccnn2)c2cc(-c3cccc(C(F)(F)F)c3)cnc21` [Example 378, 3-Methyl-1-(pyridazin-3-ylmethyl)-6-[3-(trifluoromethyl)phenyl]imidazo[4,5-b]pyridin-2-one], for which the IC50 turned out to be 0.031 µM.

For the molecule `Cc1cccc(-c2cnc3c(c2)n(Cc2cccnn2)c(=O)n3C)c1` [Example 379, 3-Methyl-6-(m-tolyl)-1-(pyridazin-3-ylmethyl)imidazo[4,5-b]pyridin-2-one], the IC50 is 0.033 µM.

Take `Cn1c(=O)n(Cc2cccnn2)c2cc(-c3ccc(F)c(Cl)c3)cnc21` [Example 380, 6-(3-Chloro-4-fluoro-phenyl)-3-methyl-1-(pyridazin-3-ylmethyl)imidazo[4,5-b]pyridin-2-one]: the half-maximal inhibitory concentration (IC50) is 0.016 µM.

As to `Cc1cc(F)cc(-c2cnc3c(c2)n(Cc2cccnn2)c(=O)n3C)c1` [Example 381, 6-(3-Fluoro-5-methyl-phenyl)-3-methyl-1-(pyridazin-3-ylmethyl)imidazo[4,5-b]pyridin-2-one], the IC50 was 0.037 µM.

For the molecule `Cn1c(=O)n(Cc2cccnn2)c2cc(-c3ccc(F)c(C(F)(F)F)c3)cnc21` [Example 382, 6-[4-Fluoro-3-(trifluoromethyl)phenyl]-3-methyl-1-(pyridazin-3-ylmethyl)imidazo[4,5-b]pyridin-2-one], the IC50 amounted to 0.016 µM.

Turning to `Cn1c(=O)n(Cc2cccnn2)c2cc(-c3cc(F)cc(C(F)(F)F)c3)cnc21` [Example 383, 6-[3-Fluoro-5-(trifluoromethyl)phenyl]-3-methyl-1-(pyridazin-3-ylmethyl)imidazo[4,5-b]pyridin-2-one], the IC50 came to 0.041 µM.

For the molecule `Cn1c(=O)n(Cc2cccnn2)c2cc(-c3ccc(Cl)c(C(F)(F)F)c3)cnc21` [Example 384, 6-[4-Chloro-3-(trifluoromethyl)phenyl]-3-methyl-1-(pyridazin-3-ylmethyl)imidazo[4,5-b]pyridin-2-one], the IC50 was determined as 0.206 µM.

For `Cn1c(=O)n(Cc2cccnn2)c2cc(-c3cc(C(F)F)ccc3F)cnc21` [Example 385, 6-(5-(Difluoromethyl)-2-fluorophenyl)-3-methyl-1-(pyridazin-3-ylmethyl)-1,3-dihydro-2H-imidazo[4,5-b]pyridin-2-one], the IC50 is 0.653 µM.

In the case of `Cn1c(=O)n(Cc2cccnc2)c2cc(-c3cc(C(F)F)ccc3F)cnc21` [Example 386, 6-(5-(Difluoromethyl)-2-fluorophenyl)-3-methyl-1-(pyridin-3-ylmethyl)-1,3-dihydro-2H-imidazo[4,5-b]pyridin-2-one], the IC50 is 1.11 µM.

Regarding `Cn1c(=O)n(Cc2cccnn2)c2cc(-c3cc(F)c(F)c(C(F)(F)F)c3)cnc21` [Example 387, 6-[3,4-Difluoro-5-(trifluoromethyl)phenyl]-3-methyl-1-(pyridazin-3-ylmethyl)imidazo[4,5-b]pyridin-2-one], the IC50 is 0.022 µM.

As for `CCC(=O)Cn1c(=O)n(C)c2ncc(-c3cccc(C(F)(F)F)c3)cc21` [Example 388, 3-Methyl-1-(2-oxobutyl)-6-[3-(trifluoromethyl)phenyl]imidazo[4,5-b]pyridin-2-one], the IC50 turned out to be 0.05 µM.
